Conditions in all cases: method of the corresponding examples
The subject of assay [1] is HL-60 cells. The experiment in a line: apoptosis-inducing activity to HL-60 cells. Type of assay: cell-based, human. The method, then:
(2) The cyclopentenone prepared in Example 2-(1) was used for preparing aqueous solutions of the cyclopentenone in the concentrations of 2.86 mM, 955 μM, 318 μM, 106 μM, 35 μM, 12 μM and […]. Then said heat-treated substance was adjusted to pH 7.0 with NaOH and the apoptosis-inducing activity to HL-60 cells was measured as follows.
To 1.35 ml of this suspension was added 0.15 ml of the above-mentioned cyclopentenone solution and the mixture was incubated at […] for 20 hours in the presence of 5% of carbon dioxide gas.

Assay [2] concerns human promyelocytic leukemia cells HL-60. The experiment in a line: MTT cell growth inhibition, optically active cyclopentenones. It is filed as cell-based. On the procedure:
An ethanolic solution (1 mg/ml) of each of the (-)- and (+) -cyclopentenoneobtained in Example 16 was diluted with a 75% aqueous ethanol solution to an extent of 2, 4, 8, 16, 32, 64, 128, 256, 512, 1024 and 2048-fold and each 5 μl of them was charged in each of the wells of a 96-well microtiter plate followed by drying with air. An RPMI 1640 medium (100 μl) containing 10% fetal bovine serum containing 5000 human promyelocytic leukemia cells HL-60 (ATCC CCL-240) was added to each well and incubated at 37° C. for 48 hours in the presence of 5% of carbon dioxide gas. After observing the morphology of the cells under an optical microscope, 10 μl of phosphate buffered saline containing 5 mg/ml of 3-(4,5-dimethylthiazol-2-yl)-2,5-diphenyltetrazolium bromide (MTT; manufactured by Sigma) thereto, an incubation was conducted for additional four hours and the growth state of the cells was observed under a microscope. Further, 100 μl of 2-propanol containing 0.04N HCl was added thereto followed by well stirring and an absorbance at 590 nm was measured and defined as the degree of cell growth.

Assay [3] has as its system HL-60 cells. The experiment in a line: cancer cell differentiation (Wright-Giemsa stain). It is filed as cell-based, human. The method, then:
(2) To HL-60 cells was added 10^-4 μg/ml of the cyclopentenone and an incubation by the same manner as in Example 15-(1) was conducted for three days. […] The result was that the differentiated cells were around 10% in the control where no cyclopentenone was added while, in the fractions to which the cyclopentenone was added, 50% or more cells were differentiated to monocyte- or to macrophage-like cells.
The result was that the differentiated cells were around 10% in the control where no cyclopentenone was added while, in the fraction to which 0.005 μg/ml of the cyclopentenone was added, 25% or more cells were differentiated to mature bone marrow cells.

Assay [4] is described as follows: antibacterial activity of optically active cyclopentenones. It is filed as cell-based.

With `O=C1C=C[C@@H](O)[C@@H]1O` (single isomer, unassigned) [(+)-trans-cyclopentenone, (+)-trans-4,5-dihydroxy-2-cyclopenten-1-one], the apoptosis inducing activity result in assay [1] is “apoptosis inducing activity”. In assay [2], the cell growth inhibition result is “cell growth inhibiting activity”. For the same compound, the “cancer cell differentiation inducing activity” value in assay [3] is “cancer cell differentiation inducing activity”. In assay [4], the antibacterial activity result was “antibacterial activity”.
Regarding `O=C1C=C[C@@H](O)[C@@H]1O` (single isomer, unassigned) [(-)-trans-cyclopentenone, (-)-trans-4,5-dihydroxy-2-cyclopenten-1-one], the apoptosis inducing activity entry in assay [1] is “apoptosis inducing activity”. In assay [2], the cell growth inhibition result is listed as “cell growth inhibiting activity”. In addition, the “cancer cell differentiation inducing activity” value in assay [3] is on record as “cancer cell differentiation inducing activity”. For the same compound, in assay [4], the antibacterial activity result is reported as “antibacterial activity”.
Take `O=C1C=CC(O)C1O` (single isomer, unassigned; (+)) [(+)-cis-cyclopentenone]: in assay [1], the apoptosis inducing activity result is reported as “apoptosis inducing activity”. In addition, the cell growth inhibition result in assay [2] is “cell growth inhibiting activity”. Besides, in assay [3], the “cancer cell differentiation inducing activity” value is on record as “cancer cell differentiation inducing activity”. In assay [4], the antibacterial activity result is reported as “antibacterial activity”.
Take `O=C1C=CC(O)C1O` (single isomer, unassigned; (-)) [(-)-cis-cyclopentenone]: the apoptosis inducing activity entry in assay [1] is on record as “apoptosis inducing activity”. Also, the cell growth inhibition result in assay [2] is recorded as “cell growth inhibiting activity”. Moreover, the “cancer cell differentiation inducing activity” value in assay [3] was “cancer cell differentiation inducing activity”. In addition, the antibacterial activity result in assay [4] was “antibacterial activity”.

The values are drawn from US6087401A, “Cyclopentenones, process for preparing the same, and the use thereof” (Takara Shuzo Co., Ltd., priority 1996, dated 2000).
